Data published in PMC8837819, “Syrbactin-class dual constitutive- and immuno-proteasome inhibitor TIR-199 impedes myeloma-mediated bone degeneration in vivo” (Bioscience Reports, 2022).
Read-outs that look alike come from different tables or passages of the source.

Experiments:
[1] = system: PSMB9-FLAG (immunoproteasome); assay: Immunoproteasome activity assay on immunoprecipitated PSMB9-FLAG (Ac-PAL-AMC); assay type: biochemical, human; conditions: n=3; for PSMB9 activity at single concentration: 100 nM for 30 min, Ac-PAL-AMC
Excerpt: Also refer to Supplementary Figure S2.

[2] = molecular target: T1, PSMB5-FLAG (chymotryptic-like activity, constitutive 26S proteasome) (Homo sapiens, UniProt P20618+P28074); assay: Proteasome activity assay on immunoprecipitated WT PSMB5-FLAG (Suc-LLVY-AMC); assay type: biochemical; conditions: for proteasomal activity of WT PSMB5: Suc-LLVY-AMC, relative to DMSO, n=3
T1 construct: made in house; host or cells: HEK293 cells stably expressing PSMB5-FLAG; FLAG immunoprecipitate
Protocol: (B) Wildtype (WT) PSMB5-FLAG was immunoprecipitated from HEK293 cells stably expressing PSMB5-FLAG. […] Also refer to Supplementary Figure S1. (D) HEK-293T cells were treated in the absence (DMSO) or presence of 0.5 μM of TIR-199 for 6 h. Cell lysates were subjected to immunoblotting with the indicated antibodies. […] (E) HEK-293T cells were treated in the absence (DMSO) or presence of either 0.1 μM of bortezomib (BTZ) or 0.2 μM of TIR-199 for 4 h. Cell lysates were subjected to immunoblotting with the indicated antibodies.

[3] = system: endogenous proteasome in MM.1S cells; assay: Chymotryptic-like proteasome activity in lysates of treated MM.1S cells; assay type: cell-based, human; conditions: 0.5 μM TIR-199 for 0.5 h vs DMSO, Suc-LLVY-AMC, n=3
[4] = system: proteasome in primary CD138+ myeloma cells; assay: Chymotryptic-like proteasome activity in primary CD138+ myeloma cells of patients; assay type: cell-based, human; conditions: CD138+ cells of two refractory patients; 500 nM for 0.5 h; Suc-LLVY-AMC; n=3
Excerpt: CD138^+ myeloma cells were purified from the bone marrow aspirates which were obtained from HIPAA compliant de-identified consenting patients in accordance with Institutional Review Board protocol: 181027 approved on 9 October 2019 at UCSD. The bone marrow aspirates were kindly provided by Dr. Caitlin Costello, Moores Cancer Center, UCSD. CD138^+ primary myeloma cells were purified from fresh bone marrow aspirates of multiple myeloma patients using EasySep™ Human Whole Blood and Bone Marrow CD138 Positive Selection Kit II (StemCell Technologies) following manufacturer’s instructions. Viable cells were collected for further analyses.
Figure 1 TIR-199 is a syrbactin-based constitutive proteasome inhibitor (A) Chemical structure of syrbactin derivative TIR-199. (B) Wildtype (WT) PSMB5-FLAG was immunoprecipitated from HEK293 cells stably expressing PSMB5-FLAG. […] (C) Proteasome activity in lysates from MM.1S and primary CD138^+ myeloma cells purified from two patients treated with DMSO or 0.5 μM TIR-199 for 0.5 h was measured with Suc-LLVY-AMC. *P<0.05; **P<0.01; ***P<0.001 (compared with control treated, two-tailed paired Student’s t test, mean ± SD from n=3 replicates). Also refer to Supplementary Figure S1. (D) HEK-293T cells were treated in the absence (DMSO) or presence of 0.5 μM of TIR-199 for 6 h. Cell lysates were subjected to immunoblotting with the indicated antibodies. […]

HEK293T cells = assay: Immunoblot of proteasome substrates and ubiquitylated proteins in HEK293T cells; assay type: cell-based, human
Protocol: Data were normalized to corresponding GAPDH levels. […] (D) HEK-293T cells were treated in the absence (DMSO) or presence of 0.5 μM of TIR-199 for 6 h. Cell lysates were subjected to immunoblotting with the indicated antibodies. Similar results were obtained in three independent replicates. (E) HEK-293T cells were treated in the absence (DMSO) or presence of either 0.1 μM of bortezomib (BTZ) or 0.2 μM of TIR-199 for 4 h. Cell lysates were subjected to immunoblotting with the indicated antibodies. Similar results were obtained in two independent replicates.

[5] = system: panel of 50 protein kinases; assay: Kinase specificity profiling, panel of 50 protein kinases (33P-ATP); assay type: biochemical; conditions: 1 μM TIR-199 (20-fold PSMB5 IC50); triplicate reactions
Protocol: TIR-199 specificity profiling assays were carried out at The International Centre for Protein Kinase Profiling (http://www.kinase-screen.mrc.ac.uk/). TIR-199 kinase specificity was determined against a panel of 50 protein kinases as described previously. The assay mixes and ^33P-γATP were added by Multidrop 384 (Thermo). Results are presented as a percentage of kinase activity in DMSO control reactions. Protein kinases were assayed in vitro with 1 μM final concentration of TIR-199 and the results are presented as an average of triplicate reactions ± SD or in the form of comparative histograms.
Kinase profiling of TIR-199 at 1 μM was carried out against the panel of 50 kinases at the
International Centre for Protein Kinase Profiling (http://www.kinase-screen.mrc.ac.uk/).
(1 picture or pasted object on this page, not shown here)

A549 cells = assay: Cytotoxicity assay (MTS), A549; assay type: cell-based; conditions: 48 h
Protocol: MTS absorbance was measured in a Tecan plate reader.

[6] = system: MM.1S myeloma-mediated bone degeneration in NSG mice; assay: MM.1S/NSG systemic myeloma xenograft, μCT of femurs; assay type: in vivo, mouse; conditions: 5 mg/kg i.p. daily for 4 days
[7] = molecular target: PSMB8-FLAG (immunoproteasome) (Homo sapiens, UniProt P20618+P28062); assay: Immunoproteasome activity assay on immunoprecipitated PSMB8-FLAG (Ac-ANW-AMC); conditions: 100 nM for 30 min; Ac-ANW-AMC; n=3
Protocol: (§1) Immunoproteasome activity assays were carried out as stated previously [32]. Briefly, HEK293 cells transiently overexpressing FLAG-tagged PSMB9 or PSMB8 were treated with IFNγ (100 ng/ml; 48 h) to induce expression of immunoproteasome. […] Immunoproteasomes were affinity purified using FLAG agarose from 2 mg of cell lysate. Peptidase activities of purified immunoproteasomes were assayed using 100 μM fluorogenic peptide substrates Ac-ANW-AMC for PSMB8 and Ac-PAL-AMC for PSMB9 (Boston Biochem) for 30 min.
(§2) (B) PSMB8 or PSMB9 was immunoprecipitated for 48 h in 100 ng/ml IFNγ-stimulated HEK293 cells transiently overexpressing either PSMB8-FLAG or PSMB9-FLAG. […] Fluorescence signal upon release of AMC was measured in a Tecan plate reader. […] Results are means ± S.D. for n=3 replicates.

[8] = molecular target: PSMB8-FLAG (immunoproteasome) (Homo sapiens, UniProt P28062); assay: as above
Protocol: as §1, §2

[9] = system: PSMB5 (AA/TV) bortezomib-resistant mutant; conditions: Suc-LLVY-AMC, relative to DMSO, n=3
[10] = vs vehicle, distal and proximal femur combined, n=6 femurs

Question: `COc1ccc(C[C@H](NC(=O)[C@H](C)NC(=O)CN2CCOCC2)C(=O)N[C@@H](Cc2ccccc2)C(=O)C2(C)CO2)cc1` (stereo in doubt) [ONX-0914, reference compound] was tested. Which “PSMB9 activity at single concentration” value [1] did it give?
Answer: did not inhibit

Question: With `CCCCCCCCCCCCNC(=O)N[C@H](C(=O)N[C@H]1/C=C/CCNC(=O)/C=C/[C@H](C)NC1=O)C(C)C` [TIR-199] as the compound, how does the IC50 [2] read?
Answer: 0.05 µM

Question: What about the “proteasomal activity of WT PSMB5” value ([2]; 100 nM TIR-199) of the same compound?
Answer: equally sensitive

Question: What about the “chymotryptic-like endogenous proteasome activity in cell lysates” value [3] of the same compound?
Answer: inhibition of chymotryptic-like endogenous proteasome activity

Question: And the “chymotryptic-like proteasome activity compared with DMSO” value [4]?
Answer: decreased significantly

Question: And the “accumulation of ubiquitylated proteins (immunoblot)” value (HEK293T cells; 200 nM TIR-199 for 4 h)?
Answer: accumulation of ubiquitylated proteins

Question: What about the “proteasome substrates p62, IKBα and p21 protein levels (immunoblot)” value (HEK293T cells; 250 nM TIR-199 for 6 h (legend: 0.5 μM)) of the same compound?
Answer: protein levels increased

Question: And the “inhibition of 50 kinases in vitro” value [5]?
Answer: does not inhibit

Question: And the “PSMB9 activity at single concentration” value [1]?
Answer: did not inhibit

Question: What about the “caspase-like activity of PSMB9” value ([1]; up to 250 nM TIR-199, 100 μM Ac-PAL-AMC) of the same compound?
Answer: largely more resistant

Question: And the “sensitivity to TIR-199 within lung cancer panel” value (A549 cells)?
Answer: relatively more resistant

Question: And the myeloma-mediated bone degeneration ([6]; femurs 7 days after dosing)?
Answer: slowed down the myeloma-mediated bone degeneration process

Question: And the “% bone volume over total volume (% BV/TV), femur μCT” value [6, 10]?
Answer: not significant

Question: What about the “trabecular number (Tb.N), femur μCT” value [6, 10] of the same compound?
Answer: higher trabecular number

Question: What about the “trabecular separation (Tb.Sp), femur μCT” value [6, 10] of the same compound?
Answer: significantly lower trabecular separation

Question: What about the “PSMB8 activity at single concentration” value [7] of the same compound?
Answer: inhibited PSMB8 potently

Question: What about the IC50 [8] of the same compound?
Answer: ~0.1 µM

Question: What about the “proteasomal activity of AA/TV PSMB5” value ([9]; 100 nM TIR-199) of the same compound?
Answer: equally sensitive

Question: Which “proteasomal activity of WT PSMB5” value ([2]; 10 nM bortezomib) does the source give for `CC(C)C[C@H](NC(=O)[C@H](Cc1ccccc1)NC(=O)c1cnccn1)B(O)O` [bortezomib, reference compound] here?
Answer: dramatic reduction in proteasomal activity

Question: What about the “accumulation of ubiquitylated proteins (immunoblot)” value (HEK293T cells; 100 nM bortezomib for 4 h) of the same compound?
Answer: accumulation of ubiquitylated proteins

Question: And the “proteasomal activity of AA/TV PSMB5” value ([9]; 10 nM bortezomib)?
Answer: significant resistance
